Marks after values point to notes of the source that are not given here.
Experiments:
[1] = Schussler et al. 1995; cited from earlier work
[2] = biological target: platelet activating factor receptor (PAFR) (Homo sapiens, UniProt P25105); conditions: cited from earlier work
isolated rat hearts [3] = test: Reperfusion-induced arrhythmias (VF, VT) in isolated hearts of orally treated rats, 30 min global ischemia and 2 hours reperfusion; type: in vivo; conditions: control 92%
Procedure: (§1) Male Sprague-Dawley rats were used for all studies. Rats were anesthetized with intraperitoneal pentobarbital sodium (60 mg/kg body weight) and then given intravenous heparin (500 IU/kg). After thoracotomy, the heart was excised and placed in ice cold perfusion buffer. Immediately after preparation, the aorta was cannulated, and the heart was perfused according to Langendorf method for a 5-min washout period at a constant perfusion pressure equivalent to 100 cm of water (10 kPa). The perfusion medium consisted of a modified Krebs-Henseleit bicarbonate buffer: 118 mM NaCl, 4.7 mM KCl, 1.7 mM CaCl2, 25 mM NaHCO3, 0.36 mM KH2PO4, 1.2 mM MgSO4, and 10 mM glucose. The left atrium was cannulated and the Langendorff system was switched to the working mode with a left atrial filling pressure of 17 cm of buffer (1.7 kPa) and aortic afterload pressure of 100 cm (10 kPa) of buffer. Aortic flow was measured by a calibrated rotameter, and coronary flow rate was measured by a timed collection of the coronary perfusate that dripped from the heart. After 10 min aerobic perfusion of the heart, the atrial inflow and aortic outflow lines were clamped at a point close to the origin of the aortic cannula. Reperfusion was initiated by unclamping the atrial inflow and aortic outflow lines. […] An epicardial ECG was recorded by a polygraph throughout the experimental period by two silver electrodes attached directly to the heart. ECGs were analyzed to determine the incidence of ventricular fibrillation (VF) and ventricular tachycardia (VT) and whether VF was non-sustained (spontaneously reverting to regular rhythm) or sustained (persisting through the first 3 min of reperfusion). After 3 min of ventricular fibrillation (sustained VF) hearts were defibrillated and myocardial function was recorded. The heart was considered to be in VF if an irregular undulating baseline was apparent on the ECG. […] In each instance, VT spontaneously switched to sinus rhythm or VF, therefore VT was considered non-sustained. The heart was considered to be in sinus rhythm if normal sinus complexes occurring in a regular rhythm were apparent on the ECG. Before ischemia and during reperfusion, heart rate (HR), coronary flow (CF) and aortic flow (AF) rates were registered. Left ventricular developed pressure (LVDP) which was defined as the difference between left ventricular systolic and end-diastolic pressure, and the first derivative of LVDP (+LVdp/dtmax) were also recorded (Experimetria, UK) by the insertion of a catheter into the left ventricle via the left atrium and mitral valve. […] Cardiac function data (HR, CF, AF, LVDP, and LVdp/dtmax), were expressed as the mean±SEM. One-way analysis of variance was first carried out, to test for any differences between the mean values of all groups. If differences were established, the values of the control, drug-free group were compared with those of the drug treated groups by a two-tailed t-test with the Bonferroni correction (Wallenstein et al., 1980, Circ. Res. 47:1-9). An analogue procedure was followed for distribution of discrete variables such as the incidence of VF and VT. An overall chi-square test for a 2×n table was constructed followed by a sequence of 2×2 chi-square tests to compare individual groups. A change of p<0.05 was considered significant.

isolated rat hearts [4] = test: Cardiac function of isolated working hearts of orally treated rats, 30 min global ischemia followed by reperfusion; type: ex vivo
Procedure: as §1

[5] = cited from earlier work
[6] = system: cAMP-specific phosphodiesterase; conditions: cited from earlier work
[7] = FK506 1 mg/kg/day oral 10 days, after 30-min reperfusion
[8] = FK506 1 mg/kg/day oral 10 days, after 60-min reperfusion
[9] = FK506 1 mg/kg/day oral 10 days, after 120-min reperfusion
[10] = FK506 5 mg/kg/day oral 10 days, after 30-min reperfusion
[11] = FK506 5 mg/kg/day oral 10 days, after 60-min reperfusion
[12] = FK506 5 mg/kg/day oral 10 days, after 120-min reperfusion
[13] = FK506 10 mg/kg/day oral 10 days, after 30-min reperfusion
[14] = FK506 10 mg/kg/day oral 10 days, after 60-min reperfusion
[15] = FK506 10 mg/kg/day oral 10 days, after 120-min reperfusion
[16] = FK506 20 mg/kg/day oral 10 days, after 30-min reperfusion
[17] = FK506 20 mg/kg/day oral 10 days, after 60-min reperfusion
[18] = FK506 20 mg/kg/day oral 10 days, after 120-min reperfusion
[19] = FK506 40 mg/kg/day oral 10 days, after 30-min reperfusion
[20] = FK506 40 mg/kg/day oral 10 days, after 60-min reperfusion
[21] = FK506 40 mg/kg/day oral 10 days, after 120-min reperfusion

Chain of platelet activating factor receptor (PAFR) (P25105 whole entry, species assumed, the tested form may be a part): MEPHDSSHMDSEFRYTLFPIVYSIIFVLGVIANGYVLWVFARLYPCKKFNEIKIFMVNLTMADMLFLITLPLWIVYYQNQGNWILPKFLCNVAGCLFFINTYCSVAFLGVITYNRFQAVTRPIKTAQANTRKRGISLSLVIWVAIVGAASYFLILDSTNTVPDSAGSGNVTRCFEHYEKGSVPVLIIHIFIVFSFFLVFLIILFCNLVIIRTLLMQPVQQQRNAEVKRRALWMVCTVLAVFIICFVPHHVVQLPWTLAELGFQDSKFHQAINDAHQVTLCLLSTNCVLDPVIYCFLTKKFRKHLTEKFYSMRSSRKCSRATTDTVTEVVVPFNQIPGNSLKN

## O=c1cc(-c2ccc(O)c(O)c2)oc2cc(O[C@@H]3O[C@H](CO)[C@@H](O)[C@H](O)[C@H]3O)cc(O)c12 [luteolin-7-glucoside]
[1]
  cardioprotective effects: 186%

## Ginkgolide J
[2]
  PAFR antagonist activity (in words): PAFR antagonist activity

## C[C@@H]1C(=O)O[C@H]2C[C@@]34[C@H]5C[C@@H](C(C)(C)C)[C@]36[C@@H](OC(=O)[C@@H]6O)O[C@@]4(C(=O)O5)[C@]21O [Ginkgolide A]
[2]
  PAFR antagonist activity (in words): PAFR antagonist

## C[C@@H]1C(=O)O[C@@H]2[C@H]1[C@@]13OC4OC(=O)[C@H](O)C45[C@H](C(C)(C)C)[C@@H](O)C(OC1=O)[C@]53[C@H]2O (some centres unmarked) [Ginkgolide M]
[2]
  PAFR antagonist activity (in words): PAFR antagonist activity

## C=CC[C@@H]1/C=C(\C)C[C@H](C)C[C@H](OC)[C@H]2O[C@@](O)(C(=O)C(=O)N3CCCC[C@H]3C(=O)O[C@H](/C(C)=C/[C@@H]3CC[C@@H](O)[C@H](OC)C3)[C@H](C)[C@@H](O)CC1=O)[C@H](C)C[C@@H]2OC [FK506, tacrolimus]
Isolated rat hearts [3]; FK506 1 mg/kg/day oral 10 days
  incidence of reperfusion-induced total (irreversible plus reversible) VF: 92%
Isolated rat hearts [3]; FK506 5 mg/kg/day oral 10 days
  incidence of reperfusion-induced total (irreversible plus reversible) VF: 83%
Isolated rat hearts [3]; FK506 10 mg/kg/day oral 10 days
  incidence of reperfusion-induced total (irreversible plus reversible) VF: 67%
Isolated rat hearts [3]; FK506 20 mg/kg/day oral 10 days
  incidence of reperfusion-induced total (irreversible plus reversible) VF: 33%
Isolated rat hearts [3]; FK506 40 mg/kg/day oral 10 days
  incidence of reperfusion-induced total (irreversible plus reversible) VF: 25%
Isolated rat hearts [4]; [7]
  +dP/dtmax: 422 ± 28 kPa/s
  AF (aortic flow): 10.6 ± 0.4 mL/min
  CF (coronary flow): 18.2 ± 1.0 mL/min
  HR (heart rate): 315 ± 9 beats/min
  LVDP (left ventricular developed pressure): 10.7 ± 0.6 kPa
Isolated rat hearts [4]; [8]
  +dP/dtmax: 447 ± 26 kPa/s
  CF (coronary flow): 16.9 ± 0.9 mL/min
  HR (heart rate): 306 ± 8 beats/min
  LVDP (left ventricular developed pressure): 11.9 ± 0.5 kPa
Isolated rat hearts [4]; FK506 1 mg/kg/day oral 10 days, after 60-min reperfusion, 1 mg/kg/day
  AF (aortic flow): 10.9 ± 1.8 mL/min
Isolated rat hearts [4]; FK506 1 mg/kg/day oral 10 days, after 60-min reperfusion, listed as FK 506, 1 mg/kg/day
  AF (aortic flow): 10.9 ± 0.6 mL/min
Isolated rat hearts [4]; [9]
  +dP/dtmax: 432 ± 17 kPa/s
  AF (aortic flow): 10.1 ± 0.6 mL/min
  CF (coronary flow): 17.5 ± 0.7 mL/min
  HR (heart rate): 302 ± 9 beats/min
  LVDP (left ventricular developed pressure): 11.2 ± 0.3 kPa
Isolated rat hearts [4]; [10]
  +dP/dtmax: 430 ± 34 kPa/s
  AF (aortic flow): 12.0 ± 0.9 mL/min
  CF (coronary flow): 18.0 ± 1.1 mL/min
  HR (heart rate): 298 ± 7 beats/min
  LVDP (left ventricular developed pressure): 11.0 ± 0.4 kPa
Isolated rat hearts [4]; [11]
  +dP/dtmax: 463 ± 23 kPa/s
  AF (aortic flow): 13.3 ± 1.0 mL/min
  CF (coronary flow): 18.4 ± 0.7 mL/min
  HR (heart rate): 282 ± 7 beats/min
  LVDP (left ventricular developed pressure): 12.0 ± 0.7 kPa
Isolated rat hearts [4]; [12]
  +dP/dtmax: 451 ± 32 kPa/s
  AF (aortic flow): 11.2 ± 0.8 mL/min
  CF (coronary flow): 18.1 ± 0.8 mL/min
  HR (heart rate): 279 ± 8 beats/min
  LVDP (left ventricular developed pressure): 11.5 ± 0.4 kPa
Isolated rat hearts [4]; [13]
  +dP/dtmax: 478 ± 44^a kPa/s
  AF (aortic flow): 12.0 ± 1.2 mL/min
  CF (coronary flow): 20.0 ± 1.4 mL/min
  HR (heart rate): 308 ± 8 beats/min
  LVDP (left ventricular developed pressure): 11.5 ± 0.5 kPa
Isolated rat hearts [4]; [14]
  +dP/dtmax: 472 ± 32 kPa/s
  AF (aortic flow): 13.3 ± 1.2 mL/min
  CF (coronary flow): 19.6 ± 1.2 mL/min
  HR (heart rate): 310 ± 9 beats/min
  LVDP (left ventricular developed pressure): 12.3 ± 0.7 kPa
Isolated rat hearts [4]; [15]
  +dP/dtmax: 463 ± 29 kPa/s
  AF (aortic flow): 11.4 ± 0.7 mL/min
  CF (coronary flow): 18.8 ± 0.7 mL/min
  HR (heart rate): 307 ± 7 beats/min
  LVDP (left ventricular developed pressure): 11.7 ± 0.6 kPa
Isolated rat hearts [4]; [16]
  +dP/dtmax: 536 ± 28^a kPa/s
  AF (aortic flow): 17.4 ± 0.8^a ml/min
  CF (coronary flow): 23.1 ± 1.1^a ml/min
  HR (heart rate): 298 ± 9 beats/min
  LVDP (left ventricular developed pressure): 13.5 ± 0.6^a kPa
Isolated rat hearts [4]; [17]
  +dP/dtmax: 544 ± 31^a kPa/s
  AF (aortic flow): 19.8 ± 1.5^a ml/min
  CF (coronary flow): 22.0 ± 1.1^a ml/min
  HR (heart rate): 297 ± 8 beats/min
  LVDP (left ventricular developed pressure): 14.1 ± 0.6^a kPa
Isolated rat hearts [4]; [18]
  +dP/dtmax: 519 ± 26^a kPa/s
  AF (aortic flow): 17.3 ± 1.1^a ml/min
  CF (coronary flow): 21.2 ± 1.1^a ml/min
  HR (heart rate): 295 ± 6 beats/min
  LVDP (left ventricular developed pressure): 13.2 ± 0.5^a kPa
Isolated rat hearts [4]; [19]
  +dP/dtmax: 557 ± 31^a kPa/s
  AF (aortic flow): 20.6 ± 1.3^a ml/min
  CF (coronary flow): 24.7 ± 1.5^a ml/min
  HR (heart rate): 291 ± 7 beats/min
  LVDP (left ventricular developed pressure): 14.1 ± 0.6^a kPa
Isolated rat hearts [4]; [20]
  +dP/dtmax: 594 ± 26^a kPa/s
  AF (aortic flow): 22.9 ± 2.1^a ml/min
  CF (coronary flow): 23.5 ± 0.8^a ml/min
  HR (heart rate): 286 ± 9 beats/min
  LVDP (left ventricular developed pressure): 15.3 ± 0.6^a kPa
Isolated rat hearts [4]; [21]
  +dP/dtmax: 568 ± 33^a kPa/s
  AF (aortic flow): 20.0 ± 1.8^a ml/min
  CF (coronary flow): 22.8 ± 1.8^a ml/min
  HR (heart rate): 289 ± 8 beats/min
  LVDP (left ventricular developed pressure): 14.6 ± 0.6^a kPa
Isolated rat hearts [4]; FK506 treatment, before ischemia, versus drug-free group
  change of preischemic HR, CF, AF, LVDP and +LVdP/dtmax (in words): No significant changes
[5]; continuous intravenous infusion, severe acute GVHD
  plasma concentrations: 25 to 35 ng/mL
[5]; low doses (0.1 mg/kg or less)
  blood levels: ~10 ng/mL
  fraction of treated patients with greater than 1 year graft survival: > 70%

## COc1ccc(NC(=S)N2CCc3c(sc4c3C(c3ccccc3Cl)=NCc3nnc(C)n3-4)C2)cc1 [BN 50730]
[2]; more potent than BN52021
  PAFR antagonistic activity compared to BN52021: up to several 10-fold

## ginkgolide C
[2]
  PAFR antagonist activity (in words): PAFR antagonist

## COc1ccc(-c2cc(=O)c3c(O)cc(O)c(-c4cc(-c5cc(=O)c6c(O)cc(OC)cc6o5)ccc4OC)c3o2)cc1 [Sciadopitysin]
[6]
  cAMP phosphodiesterase inhibitory activity (in words): almost inactive

Reference: patent publication US20040091477A1, “Immunosuppresive compositions” (priority 2003, published 2004)
